{"source": "paper PMC10591878", "about": "(ACS infectious diseases, 2023)", "origin": "cited, not measured here", "key": {"[1]": {"test_system": "P. falciparum Dd2-B2 parasites", "settings": "for MIR: Dd2-B2; for resistant parasites in 3 wells of 3 × 10^7 / resistant parasites in 4 wells of 2.5 × 10^6: Dd2-B2, 3 × EC50"}, "[2]": {"test_system": "Dd2-B2 Pf20S WT and mutant lines", "settings": "β6 N151Y vs Dd2-B2 parental line"}}, "data": [{"compound": "CC(C)C[C@@H](/C=C/S(C)(=O)=O)NC(=O)[C@H](CC(C)C)NC(=O)[C@H](Cc1c[nH]c2ccccc12)NC(=O)CN1CCOCC1", "note": "[WLL]", "values": [{"measurement": "number of parasites with which resistance was obtained", "setting": "[1]", "result": "2 × 10^9 parasites"}, {"measurement": "MIR", "setting": "[1]", "result": ">1 × 10^9"}, {"measurement": "resistant parasites in 3 wells of 3 × 10^7", "setting": "[1]", "result": "none"}, {"measurement": "resistant parasites in 4 wells of 2.5 × 10^6", "setting": "[1]", "result": "0/4 wells"}]}, {"compound": "O=C(NC1CCCC1)[C@@H]1CCCCOc2cccc(c2)C[C@H](N2CCCC2=O)C(=O)N[C@@H](CCN2CCOCC2)C(=O)N1", "note": "[TDI-8304]", "values": [{"measurement": "MIR", "setting": "[1]", "result": "3×10^7"}, {"measurement": "resistant parasites in 3 wells of 3 × 10^7", "setting": "[1]", "result": "3/3 wells"}, {"measurement": "resistant parasites in 4 wells of 2.5 × 10^6", "setting": "[1]", "result": "0/4 wells"}, {"measurement": "EC50 fold shift against selection compound", "setting": "[2]", "result": 1.7, "unit": "×"}]}]}
